Molecules are shown by their SMILES.

On to `Cc1noc(NS(=O)(=O)c2ccc(N(C)C)cc2)c1C`, for which the melting point fell in the range of 152 to 154 °C.
With `Cc1cc(C)n(-c2nc(Nc3ccccc3Cl)c3ccccc3n2)n1` the figure was 210 to 217 °C.
`CCN(CC)C(=O)c1cc(-c2ccccc2)c2ccccc2c1OC` returned a melting point of 102 to 103 °C.
Turning to `O=C(CCCCCOc1cc(-c2ccccc2)c2ccccc2n1)N1CCCC1`, the melting point was in the range of 52 to 54 °C.
For `CN1CCN(c2cccc3c2C[C@H](NC(=O)c2ccc(C#N)cc2)CC3)CC1`, the melting point was in the range of 184 to 186 °C.
Regarding `COCCN(CC1=CCC(Oc2ccccc2)([N+](=O)[O-])C=C1)C(=O)C(Cl)Cl` (stereo not drawn), the melting point lay within 116 to 117 °C.
`COc1cc(CCCC2OC(=O)NC2=O)ccc1OCc1coc(CCc2ccccc2)n1` (stereo not drawn) returned a melting point of 122 to 123 °C.
In the case of `CCc1c2nc(-c3cc(S(C)(=O)=O)ccc3OCC(C)C)[nH]c(=O)c2nn1Cc1cccnn1`, the melting point was 244 to 247 °C.
Compound `N=C(Nc1cc(Cl)cc(NC(=O)/C=C/c2ccccc2Br)c1)c1ccccc1` returned a melting point of 99 to 101 °C.
`CCOC(=O)c1nc[nH]c1-c1ccccc1`: the melting point was in the range of 203 to 205 °C.
`CNc1nc(-c2ccc3c(c2)CCC3)c(-c2cccnc2)s1`: the melting point is 169 to 170 °C.
Consider `CC1CC(O)=CC2=CCC3C4CCC(O)C4(C)CCC3C21C` (stereo not drawn), for which the melting point lay within 111 to 112 °C.
With `C=CC(=O)OCCCCCCOc1ccc(-c2cccc(F)c2F)cc1` the figure was 45.6 to 46.8 °C; with `Cc1ccc(C2(c3ccccc3)OCc3c2cnc(C)c3OCC(=O)O)cc1` (stereo not drawn), 223 °C; with `OCc1ccc(OCc2ccccc2)c2ncccc12`, 192 to 194 °C.
Compound `O=C1Cc2c(cc(Br)c3ccccc23)C(c2ccccc2F)N1` (stereo not drawn) registered a melting point of 257 to 260 °C.
Then `CCCOc1ccnc2[nH]cc(C(C)=O)c12`, with > 210 °C.
As to `COc1cn(-c2ccncc2)nc(-c2ccnn2-c2ccccc2)c1=O`, the melting point was in the range of 195 to 197 °C.
Then `NCCc1ncccc1C(N)=O`, with 54 °C; and `CCOC(=O)Cc1ccc2c(c1)sc1cccc(Cl)c12`, with 82 to 84 °C.
The compound `Cn1ncnc1COc1nn2c(-c3ccccc3)nnc2cc1C12CCC(CC1)C2` displayed a melting point of 244 to 246 °C.
`COCCn1nc2c(N)nc3ccccc3c2c1CCCCCl` had a melting point of 156 to 157 °C.
Consider `O=c1[nH]nc(-c2ccc(Cl)cc2)o1`, for which the melting point is 125 to 127 °C.
Then `O=S(=O)(OCC(F)(F)C(F)F)c1ccc2ccccc2c1`, with 89.6 °C; and `N=C(CSc1nc2cc(Cl)ccc2s1)NO`, with 155 to 157 °C; and `Clc1ccc2c(C3CCN(CCCOc4cccc5[nH]ccc45)CC3)c[nH]c2c1Cl`, with 160 to 165 °C.
`COc1cc2nc(N3CCN(C(=O)CCCO)CC3)nc(N)c2cc1OC` displayed a melting point of 241 to 243 °C.
As to `NS(=O)(=O)c1ccc(C2=C(c3ccc(F)cc3)CC3(CC3)C2)cc1`, the melting point was in the range of 131 to 133 °C.
`O=C(NCc1ccco1)c1ccc(-c2ccc3nnn(Cc4ccc5ncccc5c4)c3n2)cc1F`: the melting point lay in the range of 144 to 147 °C.
With `CNC(=O)N(C)C1=NN(C(C)=O)C(C)(C)S1`, the melting point fell in the range of 151 to 154 °C.
On to `CNS(=O)(=O)c1ccc(-c2cnc3[nH]cc(C(=O)C(C)(C)C)c3n2)cc1`, for which the melting point was 278 to 280 °C.
Then `O=c1[nH]cnc2c1nc(CC1CCN(Cc3ccccc3)CC1)n2Cc1ccc(F)cc1`, with 197 °C; and `CS(=O)(=O)c1ccc(-c2cc(C(=O)CCCO)nn2-c2ccccc2)cc1`, with 143 to 145 °C.
Then `COCOC1=C(C(N)=O)CC(C#N)(c2cccc(OCC3CC3)c2)CC1` (stereo not drawn), with 120 to 122 °C; and `O=C(O)CCc1cc2cc(Cl)ccc2n1S(=O)(=O)c1ccc2ncsc2c1`, with 96 to 100 °C.
In the case of `CN(C)C(=O)[C@H]1C[C@H]1C(=O)N(C)C`, the melting point lay in the range of 103 to 104 °C.
The compound `COc1cccc([C@H]2O[C@H](CC(=O)Nc3cccc(C(=O)O)c3C)C(=O)N(CC(C)(C)COC(C)=O)c3ccc(Cl)cc32)c1OC` showed a melting point of 139 to 142 °C.
For the compound `O=C1NCCc2ccc(OCCCCN3CCN(c4cccc5c4OCC5)CC3)nc2N1`, the melting point lay within 72 to 73 °C.
`Cn1nc(CCc2ccncc2)c2c(=O)n(-c3ccccc3)c3ncccc3c21` yielded a melting point of 285 to 286 °C.
Turning to `O=C(O)C1CCN(c2nnc(NCc3ccc4c(c3)OCO4)c3ccncc23)CC1`, the melting point is 138 to 140 °C.
Regarding `C#CCOc1cc(C(=O)OC)ccc1F`, the melting point is 60.5 to 61.5 °C.
With `COCCNCCOc1ccc(NC(=O)c2ccccc2NS(C)(=O)=O)cc1` the figure was 164 to 165 °C.
Compound `Cc1c(-c2ccc(N3CCOC3=O)cc2)nc2n1CCc1ccccc1C2OC1CCN(C)CC1` (stereo not drawn) gave a melting point of 214 °C.
With `O=c1n(Cc2ccc([N+](=O)[O-])cc2)c2ccc(Cl)cc2n1C1CCCCC1` the figure was 139 °C; with `O=C(c1cc2c3ccccc3n(Cc3ccccc3)c2s1)N1CCOCC1`, 199 to 201 °C.
Regarding `Cc1ccc(-c2nc(C)c(-c3ccnc(Nc4ccc(N5CCOCC5)cc4)n3)s2)cn1`, the melting point was in the range of 244 to 245 °C.
In turn, `COC(=O)c1c(N)cccc1[N+](=O)[O-]` gave a melting point of 105 to 107 °C.
On to `N#Cc1ccc(C(N2CCN(c3ncccn3)CC2)N2CCCC2=O)cc1` (stereo not drawn), for which the melting point was in the range of 185 to 188 °C.
`Cc1nccn1CCCNC(=O)c1cccnc1Cl` yielded a melting point of 126 to 128 °C.
On to `Cc1nnn2c1CO[C@H]1CN(C(=O)OC(C)(C)C)C[C@@H]12`, for which the melting point is 195 to 196 °C.
On to `Cc1cccc(CCCCCCCCC(=O)NO)c1`, for which the melting point lay in the range of 49 to 50 °C.
`COc1cc2c(c([N+](=O)[O-])c1O)C(=O)c1ccccc1C2=O` came in with a melting point of 296 to 297 °C.
`O=C(O)COCCCCSc1cnc(-c2ccccc2)c(-c2ccccc2)n1` came in with a melting point of 86 to 88 °C.
`N#Cc1nn(-c2c(Cl)cc(C(F)(F)F)cc2Cl)c(F)c1S(=O)(=O)C(F)(F)F` had a melting point of 95 to 98 °C.
The compound `C#CCN(C(CCn1c(=O)[nH]cc(C(F)(F)F)c1=O)C(=O)NO)S(=O)(=O)c1ccc(Oc2ccccc2)cc1` (stereo not drawn) returned a melting point of 170 to 171 °C.
Compound `Cc1nc2cccc(OCC(C)(C)C(=O)NC3CCC3)c2c(N)c1C(=O)O` came in with a melting point of 183 to 187 °C.
With `CCOC(=O)c1ccc(NCCC(c2ccc(Cl)cc2)c2ccc(Cl)cc2)cc1` the figure was 112 to 117 °C.
`COCCN1CCN(Cc2ccc3c(c2)-c2[nH]nc(-c4ccsc4)c2C3)CC1` returned a melting point of 140 to 142 °C.
Compound `O=[N+]([O-])c1ccc(Oc2cc(Cl)c(Cl)cc2Cl)c(Cl)c1Oc1ccccc1` showed a melting point of 112 °C.
With `S=C1Nc2ccc(Cl)cc2Nc2ccccc21`, the melting point is 274 to 275 °C.
With `CCCCc1nc2cccc(C(=O)O)c2n1Cc1ccc(-c2ccccc2-c2nc(=O)o[nH]2)cc1` the figure was 165 to 167 °C; with `COc1cc(OC)cc(N2CCN(C(=O)N(C)c3cc4ccccc4cc3OC)CC2)c1`, 83 to 85 °C.
Consider `CCCc1cc(C=Cc2ccc3ccccc3n2)cc(OCC(=O)O)c1`, for which the melting point was in the range of 97 to 98 °C.

For the origin of these results see a melting point compilation (Tetko et al.; mined from patent text by program, amines drawn as free bases though some values may be those of a salt).
